{
  "source": "patent US11882836B2",
  "about": "“1-amino-1-cyclopropanecarboxylic acid mixtures and uses thereof” (Valent BioSciences LLC, priority 2020, dated 2024)",
  "format_in_all_cases": "in vivo",
  "key": {"[1]": {"system": "Prunus (stone fruit) plants", "experiment": "Bud break and shoot development of Prunus (stone fruit) plants in the greenhouse (Example 2)", "details": "for FW (grams): harvest, 28 days", "protocol": "(§1) To determine if the mixtures provided unexpected results, the observed combined efficacy (“OCE”) was divided by the expected combined efficacy (“ECE”) wherein the expected ECE is calculated by the Abbott method: ECE=A+B−(AB/100),\n(§2) wherein ECE is the expected combined efficacy and in which A and B are the speed of bud break relative to control, the number of buds broken per plant relative to control, shoot length relative to control or shoot weight relative to control given by the single active ingredients. If the ratio between the OCE of the mixture and the ECE of the mixture is greater than 1, then greater than expected interactions are present in the mixture. (Gisi, Synergistic Interaction of Fungicides in Mixtures, The American Phytopathological Society, 86:11, 1273-1279, 1996).\nTo assess the ability of mixtures of the invention to promote and synchronize bud break, these mixtures were applied to Prunus (stone fruit) plants in the greenhouse and examined for bud break (initiation of growth) and subsequent shoot development. ACC, Dormex® (50% HC), 15-0-0 (Erger®) and 17-0-0 fertilizers (CAN17), and mixtures thereof were each applied individually or sequentially (co-applied) to the shoots of Prunus plants. Plants were evaluated for bud break at 28 days after treatment."}, "[2]": {"system": "Prunus (stone fruit) plants", "experiment": "Bud break and shoot development of Prunus plants, ACC and CAN15 mixtures (Example 4)", "details": "for Mean FW: harvest", "protocol": "as §1\nIf the ratio between the OCE of the mixture and the ECE of the mixture is greater than 1, then greater than expected interactions are present in the mixture.\nTo assess the ability of mixtures of the invention to promote and synchronize bud break, these mixtures were applied to Prunus (stone fruit) plants in the greenhouse and examined for bud break (initiation of growth) and subsequent shoot development. ACC, Dormex (50% HC), and 15-0-0 fertilizers (CAN15), and mixtures thereof were each applied individually or sequentially (co-applied) to the shoots of Prunus plants."}, "[3]": {"system": "Malus (apple) rootstocks", "experiment": "Bud break and shoot development of Malus (apple) rootstocks after shoot application (Example 1)", "details": "for Average Number of Broken Buds Per Malus Plant at Harvest / Average Number of Broken Nodes Per Centimeter of Shoot at Harvest / Fresh Weight at Harvest / Fresh Weight per Bud at Harvest: 28 days; for Fresh Weight at Harvest / Fresh Weight per Bud at Harvest: Malus", "source_text": "To assess the ability of mixtures of the invention to promote and synchronize bud break, these mixtures were applied to field-grown Malus (apple) rootstocks and examined for bud break (initiation of growth) and subsequent shoot development. ACC, Dormex® (50% HC), 15-0-0 (Erger®) and 17-0-0 fertilizers (CAN17), and mixtures thereof were each applied individually or sequentially (co-applied) to the shoots of potted Malus rootstocks that were pruned to a height of 25 centimeters. Plants were evaluated for bud break at 28 days after treatment.\nas §1, §2"}, "[4]": {"system": "Prunus (stone fruit) plants", "experiment": "Bud break and shoot development of Prunus plants, ACC and CAN17 mixtures (Example 3)", "details": "for Mean FW: harvest", "protocol": "as §1, §2\nTo assess the ability of mixtures of the invention to promote and synchronize bud break, these mixtures were applied to Prunus (stone fruit) plants in the greenhouse and examined for bud break (initiation of growth) and subsequent shoot development. ACC, Dormex® (50% HC), and 17-0-0 fertilizers (CAN17), and mixtures thereof were each applied individually or sequentially (co-applied) to the shoots of Prunus plants. Plants were evaluated for bud break from 4-21 days after treatment."}},
  "data": [
    {"smiles": "NC1(C(=O)O)CC1", "note": "[ACC, 1-amino-1-cyclopropanecarboxylic acid]", "values": [
      {"measurement": "50% BB", "setting": "[1]; ACC 300 ppm", "value": 12, "unit": "days"},
      {"measurement": "FW (grams)", "setting": "[1]; ACC 300 ppm", "value": 3.95, "unit": "grams"},
      {"measurement": "50% BB", "setting": "[1]; ACC 1000 ppm", "value": 7, "unit": "days"},
      {"measurement": "FW (grams)", "setting": "[1]; ACC 1000 ppm", "value": 3.81, "unit": "grams"},
      {"measurement": "0-100% BB", "setting": "[2]; ACC 100 ppm", "value": 6, "unit": "days"},
      {"measurement": "50% BB", "setting": "[2]; ACC 100 ppm", "value": 10, "unit": "days"},
      {"measurement": "Mean FW", "setting": "[2]; ACC 100 ppm", "value": 1.01, "unit": "g"},
      {"measurement": "0-100% BB", "setting": "[2]; ACC 300 ppm", "value": 5, "unit": "days"},
      {"measurement": "50% BB", "setting": "[2]; ACC 300 ppm", "value": 10, "unit": "days"},
      {"measurement": "Mean FW", "setting": "[2]; ACC 300 ppm", "value": 1.46, "unit": "g"},
      {"measurement": "0-100% BB", "setting": "[2]; ACC 600 ppm", "value": 7, "unit": "days"},
      {"measurement": "50% BB", "setting": "[2]; ACC 600 ppm", "value": 9, "unit": "days"},
      {"measurement": "Mean FW", "setting": "[2]; ACC 600 ppm", "value": 2.57, "unit": "g"},
      {"measurement": "50% BB", "setting": "[3]; ACC 300 ppm", "value": 14, "unit": "days"},
      {"measurement": "Average Number of Broken Buds Per Malus Plant at Harvest", "setting": "[3]; ACC 300 ppm", "value": 6.13},
      {"measurement": "Average Number of Broken Nodes Per Centimeter of Shoot at Harvest", "setting": "[3]; ACC 300 ppm", "value": 0.25},
      {"measurement": "Fresh Weight at Harvest", "setting": "[3]; ACC 300 ppm", "value": 4.34, "unit": "grams"},
      {"measurement": "Fresh Weight per Bud at Harvest", "setting": "[3]; ACC 300 ppm", "value": 0.66, "unit": "grams"},
      {"measurement": "50% BB", "setting": "[3]; ACC 1000 ppm", "value": 16, "unit": "days"},
      {"measurement": "Average Number of Broken Buds Per Malus Plant at Harvest", "setting": "[3]; ACC 1000 ppm", "value": 7.38},
      {"measurement": "Average Number of Broken Nodes Per Centimeter of Shoot at Harvest", "setting": "[3]; ACC 1000 ppm", "value": 0.30},
      {"measurement": "Fresh Weight at Harvest", "setting": "[3]; ACC 1000 ppm", "value": 3.05, "unit": "grams"},
      {"measurement": "Fresh Weight per Bud at Harvest", "setting": "[3]; ACC 1000 ppm", "value": 0.46, "unit": "grams"},
      {"measurement": "0-100% BB", "setting": "[4]; ACC 100 ppm", "value": 10, "unit": "days"},
      {"measurement": "50% BB", "setting": "[4]; ACC 100 ppm", "value": 11, "unit": "days"},
      {"measurement": "Mean FW", "setting": "[4]; ACC 100 ppm", "value": 0.52, "unit": "g"},
      {"measurement": "0-100% BB", "setting": "[4]; ACC 300 ppm", "value": 13, "unit": "days"},
      {"measurement": "50% BB", "setting": "[4]; ACC 300 ppm", "value": 10, "unit": "days"},
      {"measurement": "Mean FW", "setting": "[4]; ACC 300 ppm", "value": 1.84, "unit": "g"},
      {"measurement": "0-100% BB", "setting": "[4]; ACC 600 ppm", "value": 12, "unit": "days"},
      {"measurement": "50% BB", "setting": "[4]; ACC 600 ppm", "value": 10, "unit": "days"},
      {"measurement": "Mean FW", "setting": "[4]; ACC 600 ppm", "value": 1.28, "unit": "g"}
    ]},
    {"smiles": "N#CN", "note": "[HC, hydrogen cyanamide, reference compound]", "values": [
      {"measurement": "50% BB", "setting": "[1]; HC 1% (v/v)", "value": 7, "unit": "days"},
      {"measurement": "FW (grams)", "setting": "[1]; HC 1% (v/v)", "value": 4.76, "unit": "grams"},
      {"measurement": "0-100% BB", "setting": "[2]; HC 1% (v/v)", "value": 6, "unit": "days"},
      {"measurement": "50% BB", "setting": "[2]; HC 1% (v/v)", "value": 9, "unit": "days"},
      {"measurement": "Mean FW", "setting": "[2]; HC 1% (v/v)", "value": 3.15, "unit": "g"},
      {"measurement": "50% BB", "setting": "[3]; HC 1% (v/v)", "value": 12, "unit": "days"},
      {"measurement": "Average Number of Broken Buds Per Malus Plant at Harvest", "setting": "[3]; HC 1% (v/v)", "value": 8.13},
      {"measurement": "Average Number of Broken Nodes Per Centimeter of Shoot at Harvest", "setting": "[3]; HC 1% (v/v)", "value": 0.325},
      {"measurement": "Fresh Weight at Harvest", "setting": "[3]; HC 1% (v/v)", "value": 7.99, "unit": "grams"},
      {"measurement": "Fresh Weight per Bud at Harvest", "setting": "[3]; HC 1% (v/v)", "value": 0.98, "unit": "grams"},
      {"measurement": "0-100% BB", "setting": "[4]; HC 1% (v/v)", "value": 6, "unit": "days"},
      {"measurement": "50% BB", "setting": "[4]; HC 1% (v/v)", "value": 9, "unit": "days"},
      {"measurement": "Mean FW", "setting": "[4]; HC 1% (v/v)", "value": 1.64, "unit": "g"}
    ]}
  ]
}
